In patent US5844100A, “Ink compositions containing azo dyes for ink jet printing” (Ilford Imaging Switzerland GmbH, priority 1995, dated 1998):

Key:
[1] = Absorption maximum (λ max) in H2O; type: physicochemical
[2] = Dye solubility in water at 20° C., determined spectroscopically; type: physicochemical; conditions: heated at 50° C. 1 hour, cooled to 20° C., filtered
Experimental: The solubilities of the dyes according to the invention were determined as follows:
An excess of dye was heated at 50° C. in water with stirring for one hour. The mixture was then cooled down to 20° C. and filtered, and the dye content of the clear solution was determined spectroscopically.

| Structure (SMILES) | λ max (nm) in H2O [1] [nm] | Solubility (in g per 100 ml) [2] [g per 100 ml] |
| --- | --- | --- |
| Cc1cc(Nc2nc(SCCCS(=O)(=O)O)nc(SCCCS(=O)(=O)O)n2)ccc1N=Nc1cc(S(=O)(=O)O)c2cccc(S(=O)(=O)O)c2c1 [Compound 103] | 383 | 30 |
| Nc1ccc2cc(S(=O)(=O)O)cc(O)c2c1N=Nc1ccc(Nc2nc(SCCCS(=O)(=O)O)nc(SCCCS(=O)(=O)O)n2)cc1S(=O)(=O)O [Compound 118] | 518 | 43 |
| COc1cc(N=Nc2cccc(S(=O)(=O)O)c2)c(C)cc1Nc1nc(SCCCCS(=O)(=O)O)nc(SCCCCS(=O)(=O)O)n1 [Compound 104] | 383 |  |
| COc1cc(N=Nc2cc(S(=O)(=O)O)c3cccc(S(=O)(=O)O)c3c2)c(C)cc1Nc1nc(SCCCS(=O)(=O)O)nc(SCCCS(=O)(=O)O)n1 [Compound 100] | 401 | 34 |
| O=S(=O)(O)CCCSc1nc(Nc2ccc(S(=O)(=O)O)c3cc(S(=O)(=O)O)c(N=Nc4ccc5c(S(=O)(=O)O)cccc5c4S(=O)(=O)O)c(O)c23)nc(SCCCS(=O)(=O)O)n1 [Compound 122] | 543 |  |
| Cc1cc(N=Nc2c(Nc3c(C)cccc3C)ccc3cc(S(=O)(=O)O)cc(O)c23)c(S(=O)(=O)O)cc1Nc1nc(SCCCS(=O)(=O)O)nc(SCCCS(=O)(=O)O)n1 [Compound 120] | 529 |  |
| CC(=O)Nc1cc(Nc2nc(SCCCS(=O)(=O)O)nc(SCCCS(=O)(=O)O)n2)ccc1N=Nc1cc(S(=O)(=O)O)c2cccc(S(=O)(=O)O)c2c1 [Compound 102] | 394 |  |
| O=C(O)CCNc1ccc2cc(S(=O)(=O)O)cc(O)c2c1N=Nc1ccc(Nc2nc(SCCCS(=O)(=O)O)nc(SCCCS(=O)(=O)O)n2)cc1S(=O)(=O)O [Compound 119] | 535 |  |
| O=S(=O)(O)CCCSc1nc(Nc2ccc(N=Nc3c(S(=O)(=O)O)cc4cccc(NS(=O)(=O)c5ccc(Br)cc5)c4c3O)c(S(=O)(=O)O)c2)nc(SCCCS(=O)(=O)O)n1 [Compound 111] | 526 |  |
| Cc1ccc(S(=O)(=O)Nc2cc(S(=O)(=O)O)cc3cc(S(=O)(=O)O)c(N=Nc4cc(Nc5nc(SCCCS(=O)(=O)O)nc(SCCCS(=O)(=O)O)n5)ccc4S(=O)(=O)O)c(O)c23)cc1 [Compound 113] | 527 |  |

Second part, the compound after the results:

| λ max (nm) in H2O [1] [nm] | Solubility (in g per 100 ml) [2] [g per 100 ml] | Structure (SMILES) |
| --- | --- | --- |
| 512 | 44 | O=C(Nc1cc(S(=O)(=O)O)cc2cc(S(=O)(=O)O)c(N=Nc3cc(Nc4nc(SCCCS(=O)(=O)O)nc(SCCCS(=O)(=O)O)n4)ccc3S(=O)(=O)O)c(O)c12)c1ccccc1 [Compound 112] |
| 530 |  | CCCCCC(=O)Nc1cc(S(=O)(=O)O)cc2cc(S(=O)(=O)O)c(N=Nc3cc(Nc4nc(SCCCS(=O)(=O)O)nc(SCCCS(=O)(=O)O)n4)c(OC)cc3S(=O)(=O)O)c(O)c12 [Compound 109] |
|  | 11 | COc1cc(N=Nc2c(N)ccc3cc(S(=O)(=O)O)cc(O)c23)c(C)cc1Nc1nc(NCCO)nc(Nc2cccc(S(=O)(=O)O)c2)n1 [dye 1, reference compound] |
|  | 17 | CCCCCCNc1nc(NCCCCCC)nc(Nc2cc(S(=O)(=O)O)cc3cc(S(=O)(=O)O)c(N=Nc4ccccc4S(=O)(=O)O)c(O)c23)n1 [dye 5, reference compound] |
| 555 |  | COc1ccc(N=Nc2c(S(=O)(=O)O)cc3cc(S(=O)(=O)O)cc(Nc4nc(SCCCS(=O)(=O)O)nc(SCCCS(=O)(=O)O)n4)c3c2O)cc1S(=O)(=O)O [Compound 116] |
| 543 |  | Cc1ccc(N=Nc2c(S(=O)(=O)O)cc3cc(S(=O)(=O)O)cc(Nc4nc(SCCCS(=O)(=O)O)nc(SCCCS(=O)(=O)O)n4)c3c2O)c(S(=O)(=O)O)c1 [Compound 115] |
| 542 |  | COc1cc(S(=O)(=O)O)c(N=Nc2c(NCCC#N)ccc3cc(S(=O)(=O)O)cc(O)c23)cc1Nc1nc(SCCCS(=O)(=O)O)nc(SCCCS(=O)(=O)O)n1 [Compound 121] |
